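Assay format: 96-well plates, 48-hour exposure. Here, GI50 denotes the concentration required for 50% inhibition of growth.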 Active and inactive are the calls of the source. Cut-off read from the data, not from the text of the source: active = GI50 up to about 1.1 µM and inactive = higher.
Key:
Experiment in all cases: growth of human tumour cells (NCI), 48 h
[1] = system: UACC-62
[2] = system: U-251
[3] = system: SNB-75
[4] = system: UO-31
[5] = system: NCI-H522
[6] = system: HCC 2998
[7] = system: RXF 393
[8] = system: TK-10
[9] = system: HL-60
[10] = system: Malme-3M
[11] = system: M14
[12] = system: NCI-H23
[13] = system: HOP-62
[14] = system: A549
[15] = system: SF-268
[16] = system: NCI-H226
[17] = system: SK-OV-3
[18] = system: 786-0
[19] = system: HCT-15
[20] = system: SK-MEL-28

SMILES | GI50 [1] | GI50 [2] | GI50 [3] | GI50 [4] | GI50 [5] | GI50 [6] | GI50 [7] | GI50 [8] | GI50 [9] | GI50 [10] | GI50 [11] | GI50 [12] | GI50 [13] | GI50 [14] | GI50 [15] | GI50 [16] | GI50 [17] | GI50 [18] | GI50 [19] [µM] | GI50 [20]
COc1cc2c(cc1OCCCCCCCCN1C(=O)c3cccc4cccc(c34)C1=O)N=C[C@@H]1CCCN1C2=O | 13.5 µM (inactive) | 6.62 µM (inactive) | 1.11 µM (active) | 17.2 µM (inactive) | 12 µM (inactive) | 14.2 µM (inactive) | 12.4 µM (inactive) | 29.7 µM (inactive) | 13.8 µM (inactive) | 21 µM (inactive) | 37.3 µM (inactive) | 15.1 µM (inactive) | 42 µM (inactive) | 20 µM (inactive) | 15 µM (inactive) | 14.7 µM (inactive) | 1.79 µM (inactive) | 23.6 µM (inactive) | 12.8 | 17.9 µM (inactive)
O=C(NCCCNCCN1C(=O)c2cccc3cc([N+](=O)[O-])cc(c23)C1=O)c1cc(-c2ccccc2)nc2ccccc12 | 5.12 µM (inactive) | 2.09 µM (inactive) | 3.62 µM (inactive) | 2.52 µM (inactive) | 1.62 µM (inactive) | 1.49 µM (inactive) | 1.49 µM (inactive) | 7.74 µM (inactive) | 1.76 µM (inactive) | 1.81 µM (inactive) | 1.72 µM (inactive) | 3.02 µM (inactive) | 6.49 µM (inactive) | 3.31 µM (inactive) | 1.39 µM (inactive) | 7.26 µM (inactive) | 8.91 µM (inactive) | 1.45 µM (inactive) | 3.03 | 1.85 µM (inactive)
CN(C)Cc1cc(/N=N/c2c(Cl)cccc2Cl)ccc1O | 62.2 µM (inactive) | 85.7 µM (inactive) | > 100 µM (inactive) | 36 µM (inactive) | > 100 µM (inactive) | > 100 µM (inactive) | 23.4 µM (inactive) | > 100 µM (inactive) | 68.4 µM (inactive) | 74.5 µM (inactive) | > 10 µM (inactive) | 63.4 µM (inactive) | > 100 µM (inactive) | 61.5 µM (inactive) | > 100 µM (inactive) | 35.2 µM (inactive) | > 100 µM (inactive) | 64.1 µM (inactive) | > 100 | 71.8 µM (inactive)
N#C/N=C(/N)NCO | > 100 µM (inactive) | > 53.7 µM (inactive) | > 100 µM (inactive) | > 100 µM (inactive) | > 100 µM (inactive) | > 100 µM (inactive) | 16.5 µM (inactive) | > 100 µM (inactive) | > 100 µM (inactive) | > 100 µM (inactive) | > 100 µM (inactive) | > 100 µM (inactive) | > 100 µM (inactive) | > 57.4 µM (inactive) | 63.5 µM (inactive) | > 100 µM (inactive) | > 100 µM (inactive) | > 43.8 µM (inactive) | > 40 | > 100 µM (inactive)
CC(C(O)c1ccccc1)C(O)(C(F)(F)F)C(F)(F)F (stereo not given) | > 100 µM (inactive) | > 100 µM (inactive) | 65.3 µM (inactive) | > 100 µM (inactive) | > 100 µM (inactive) | > 100 µM (inactive) | > 100 µM (inactive) | > 100 µM (inactive) | > 100 µM (inactive) | > 100 µM (inactive) | > 100 µM (inactive) | > 100 µM (inactive) | > 100 µM (inactive) | > 100 µM (inactive) | > 100 µM (inactive) | 69.7 µM (inactive) | > 100 µM (inactive) | > 100 µM (inactive) | > 100 | > 100 µM (inactive)
C#C[C@]1(O)CC[C@H]2[C@@H]3CCC4=C/C(=N\OCCN(CC)CC)CC[C@]4(C)[C@H]3CC[C@@]21C | 3.44 µM (inactive) | 8.04 µM (inactive) | 3.05 µM (inactive) | 3.72 µM (inactive) | 2.42 µM (inactive) | 10.2 µM (inactive) | 2.41 µM (inactive) | 6.7 µM (inactive) | 0.586 µM (active) | 3.25 µM (inactive) | 3.02 µM (inactive) | 5.22 µM (inactive) | 3.58 µM (inactive) | 5.77 µM (inactive) | 2.92 µM (inactive) | 11.9 µM (inactive) | 9.4 µM (inactive) | 2.7 µM (inactive) | 5.6 | 7.66 µM (inactive)
CCC1(N)C(=O)OCc2c1cc1n(c2=O)Cc2cc3ccccc3nc2-1 (stereo not given) | 2.75 µM (inactive) | 6.73 µM (inactive) | 8.36 µM (inactive) | 3.42 µM (inactive) | 9.51 µM (inactive) | 38.4 µM (inactive) | 13.4 µM (inactive) | > 74.3 µM (inactive) | 1.74 µM (inactive) | 44.3 µM (inactive) | 7.41 µM (inactive) | 4.56 µM (inactive) | 5.69 µM (inactive) | 6.58 µM (inactive) | 5.7 µM (inactive) | 6.08 µM (inactive) | > 100 µM (inactive) | 3.74 µM (inactive) | 32.7 | > 93.1 µM (inactive)

Reference: ChEMBL document CHEMBL1201862, “PubChem BioAssay data set” (2004)
